Values quoted from earlier work in paper PMC9972852, “Multivalent effect of peptide functionalized polymeric nanoparticles towards selective prostate cancer targeting” (Nanoscale Advances, 2023).

Tested on: extracellular domain of PSMA
Settings: monomeric peptide WQPDTAHHWATL
Description: Prostate specific membrane antigen (PSMA) is a 100 kDa type II transmembrane glycosylated protein with folate hydrolase activity and is overexpressed not only in nearly all prostate cancer cells,[6] but also in tumor neovasculature in a variety of cancers.[6–8] In contrast, it has minimal expression (100–1000 times lower) in normal prostate epithelium tissues and other normal tissues,[7,9] making it an ideal biomarker for the design of various targeted therapies. Several different kinds of targeting ligands against PSMA have been discovered over the years;[10–12] however, they have not yet had ...

In the case of “WQPDTAHHWATLC [WQP peptide, PSMA-targeting cell targeting peptide …, synthesized with an added C-terminal cysteine]”, the “Binding affinity to the extracellular domain of PSMA” value is given as “moderate/low”.
